Results from US11376247B2, “Tyrosine kinase inhibitors regenerate non-cancerous tissue after cancer therapy” (THE REGENTS OF THE UNIVERSITY OF COLORADO, A BODY CORPORATE, priority 2017, dated 2022).

How the values were obtained:
salivary gland function = experiment: Saliva production in mice after single dose head and neck IR; type: in vivo
Protocol: The star indicates time of IR treatment. Three TKI dosing regimens were used, where times of delivery is indicated by the filled circles. Mice were treated with the specific TKI 1 hour prior to delivery of IR (pre), 1 hour prior and 3 hours post IR (pre/post), or 3 and 6 hours post (post/post). Saliva production was assayed prior to IR (day 0) and at 60 days after IR as described in Examples. […] Saliva was collected […]. as described in Examples. Salivary production (saliva weight/animal weight) for each cohort of mice was normalized against the saliva production for vehicle treated mice to generate the data shown.
(§1) The star indicates time of IR treatment; while TKI delivery is indicated by the filled circles and arrows indicate time of saliva collection. Mice were dosed 1 hour prior and 3 hours post IR (pre/post), or pre/post plus twice a week for the duration of the experiment. Saliva production was assayed prior to IR (day 0) and at 30, 60, 90, 120 and 150 days after IR. Mice received vehicle alone, 15 Gy IR plus vehicle, or IR plus dasatinib as indicated. Saliva production (saliva weight/animal weight) for each cohort of mice was normalized against the production for vehicle-treated mice to generate the data shown in FIG. 3B. […] Salivary glands from mice in each group (n=2) were removed, formalin fixed and paraffin embedded. Immunohistochemistry for AQPN5 and H&E staining was performed on salivary glands from each mouse. […] Images were captured using an Olympus BX51 scope and Olympus DP72 camera with a 20× objective. Solid arrows indicate acinar cells while dashed arrows mark salivary gland ducts.
The schematic in FIG. 2A depicts the 3 dosing regimens used for the experiments in FIG. 2.
(§2) C57Bl/6 and athymic nude female mice were purchased from Jackson Laboratories (Bar Harbor, Me., USA). For single dose IR, mice were anesthetized by intraperitoneal (i.p.) injection of […] Avertin (Sigma), immobilized within a 50-mL conical tube, and a single dose of IR (10 or 15 Gy) was delivered to the head and neck using a Caesium-137 source. For fractionated IR, mice received 5 fractions of 6 Gy (tumor study) or 4 Gy (saliva production) on 5 consecutive days.
Saliva was collected immediately following i.p. injection of 0.1 mg/kg carbachol (Sigma) in saline (0.9% NaCl). Whole saliva was collected for 3 mins from the lower cheek pouch using a suction device and expressed as mg (saliva)/g (mouse weight).

SMG acinar cells = experiment: Salivary gland histology (H&E, AQPN5 immunohistochemistry) 150 days after IR; type: in vivo, mice; conditions: 15 Gy IR, continuous dasatinib
Protocol: as §1, with “indicated.” for “indicated. Saliva production (saliva weight/animal weight) for each cohort of mice was normalized against the production for vehicle-treated mice to generate the data shown in FIG. 3B.”, “Solid arrows indicate acinar cells while dashed arrows mark salivary gland ducts.” left out
For tissue analysis, salivary glands were formalin fixed, paraffin embedded, and sectioned at […]. Tissue sections were stained with haematoxylin-eosin (H&E) and aquaporin 5 (AQPN5) was detected by immunohistochemistry (Abcam). Stained slides were archived and analyzed using the Aperio Digital Pathology System and ImageScope software (Leica Biosystems). For AQPN5, the number of positive stained pixels was quantified using the Positive Pixel algorithm in three representative sections, cut 50 micrometers apart, of both full submandibular salivary glands from two mice per treatment group, for a total of […] per group. […]

[1] = test system: FaDu derived xenograft tumors; experiment: FaDu flank xenograft tumor growth with fractionated IR; type: in vivo, nude mice
Protocol: as §2

[2] = test system: PKC-delta, c-Src, c-Abl in ParC5 cells; experiment: Immunoblot for PKC-delta pY64/pY155, c-Src pY416 and c-Abl pY412 after H2O2; type: cell-based, rat; conditions: TKI 30 min, then 5 mM H2O2 30 min
ParC5 cells = experiment: IR-induced apoptosis, caspase-3/7 activity in salivary gland acinar cells; type: cell-based, rat; conditions: TKI pretreatment 30 min, 10 Gy IR, 18 hours after IR
Protocol: Whole cell lysates were resolved with SDS-PAGE and analyzed using phospho-specific antibodies that recognize PKC-delta pY64, pY155 or pT505. Membranes were stripped and probed for total PKC-delta and actin to determine loading. Each experiment was done a minimum of three times; representative immunoblots are shown. […] Caspase-3/7 activity was assayed as described in the Examples. Data shown is the average of triplicate samples from a representative experiment plus and minus the S.D. (error bars). The experiment was repeated three times, *=p<0.05 for caspase activity compared to cells expressing shScr. An immunoblot showing depletion of PKC-delta is shown below. […] The data are the average of triplicate measurements from a representative experiment plus the S.D. (error bars). Each experiment was repeated three times. *=p<0.05 for caspase activity compared to cells treated with IR alone. […] Inhibition of c-Src and c-Abl was determined by probing for their respective activation sites pY416 (c-Src) and pY412 (c-Abl). […]
Phosphorylation of PKC-delta at T505 is seen within 1 hour after IR, while phosphorylation at Y64 and Y155 are detectable by 2 hours post IR and continue to increase until at least 6 hours (FIG. 1A). […] Active caspase-3/7 was detected using the Caspase-3/7 Cellular Activity Assay Kit PLUS (Biomol, Farmingdale, N.Y.) according to the manufacturer's instructions.

PKC-delta = conditions: in response to DNA damaging agents; previously shown; cited from earlier work

Cc1nc(Nc2ncc(C(=O)Nc3c(C)cccc3Cl)s2)cc(N2CCN(CCO)CC2)n1 [dasatinib]
saliva production, % of vehicle treated controls (salivary gland function; 15 Gy IR, dasatinib 20 mg/kg pre/post, 60 days post IR (FIG. 2B)): 65%
saliva production, % of vehicle treated mice (salivary gland function; 15 Gy IR, dasatinib pre/post only, 30 and 60 days (FIG. 3B)): 70%
saliva production, % of vehicle treated controls (salivary gland function; 15 Gy IR, dasatinib pre/post plus twice a week (continual), 90 days): 74%
saliva production, % of vehicle treated controls (salivary gland function; 15 Gy IR, dasatinib pre/post plus twice a week (continual), 120 days): 69%
saliva production, % of vehicle treated controls (salivary gland function; 15 Gy IR, dasatinib pre/post plus twice a week (continual), 150 days): 82%
protection of salivary gland function compared to vehicle only treated mice (salivary gland function; IR plus dasatinib, all 3 protocols (pre, pre/post, post/post), 60 days (FIG. 2D)): ~100%
AQPN5 staining in the SMGs, % of vehicle treated mice (SMG acinar cells): 93%

Cc1ccc(NC(=O)c2ccc(CN3CCN(C)CC3)cc2)cc1Nc1nccc(-c2cccnc2)n1 [imatinib]
saliva production, % of vehicle control (salivary gland function; IR plus imatinib, one dose prior to IR (pre), 60 days (FIG. 2E)): 63%
tumor growth, TKI added to fractionated IR ([1]; 5 x 6 Gy IR, dasatinib 20 mg/kg or imatinib 50 mg/kg pre/post each fraction): no effect on tumor growth
tumor growth, TKI alone compared to respective controls ([1]; dasatinib 20 mg/kg or imatinib 50 mg/kg alone, no IR): trend towards reduced tumor growth
inhibition of Y155 versus Y64 phosphorylation of PKC-delta [2]: slightly more potent inhibitors of Y155 phosphorylation than Y64 phosphorylation
inhibition of c-Abl versus c-Src [2]: more potent inhibition of c-Abl than c-Src
IR-induced apoptosis (caspase-3/7 activity) (ParC5 cells): inhibits IR-induced apoptosis
phosphorylation of PKC-delta at Y64 and Y155, nuclear translocation of PKC-delta, and apoptosis (PKC-delta): block
